Assay results: the supplement of paper PMC4862054

What was measured:
Conditions in all cases: incubation time: 72 h
[1] = test system: MDA-MB-436; assay: normalised viability (% of control), CellTiter-Blue; higher = more viable cells (about 100 = DMSO control)
Protocol: (§1)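 DSRT, CellTiter-Blue viability, 72 h incubation. Signal is normalised to DMSO and benzethonium chloride controls. Value is the normalised response at dose 3.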

[2] = test system: CAL-148; assay: as above
Protocol: as §1

[3] = test system: HCC1937; assay: as above
Protocol: as §1

[4] = test system: HCC1143; assay: as above
Protocol: as §1

[5] = test system: SK-BR-3; assay: as above
Protocol: as §1

[6] = test system: MDA-MB-468; assay: as above
Protocol: as §1

[7] = test system: DU-4475; assay: as above
Protocol: as §1

[8] = test system: BT-549; assay: as above
Protocol: as §1

[9] = test system: MFM-223; assay: as above
Protocol: as §1

[10] = test system: HCC1599; assay: as above
Protocol: as §1

[11] = test system: MDA-MB-436; assay: drug sensitivity score (DSS), CellTiter-Blue viability (DSS (AUC-based score)); higher = stronger viability inhibition; extreme values may be limits of the assay
Protocol: (§2)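 DSRT with the CellTiter-Blue (resazurin reduction) viability readout, fluorescence 560/590 nm, 72 h incubation. Plates were normalised to DMSO and benzethonium chloride controls. DSS is computed from the area under the fitted dose-response curve (5 or 9 concentrations).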

[12] = test system: Hs578T; assay: as above
Protocol: as §2

[13] = test system: CAL-148; assay: as above
Protocol: as §2

[14] = test system: HCC1937; assay: as above
Protocol: as §2

[15] = test system: MDA-MB-231; assay: as above
Protocol: as §2

[16] = test system: HDQ-P1; assay: as above
Protocol: as §2

[17] = test system: HCC1143; assay: as above
Protocol: as §2

[18] = test system: BT-474; assay: as above
Protocol: as §2

[19] = test system: CAL-85-1; assay: as above
Protocol: as §2

[20] = test system: SK-BR-3; assay: as above
Protocol: as §2

[21] = test system: MDA-MB-468; assay: as above
Protocol: as §2

[22] = test system: DU-4475; assay: as above
Protocol: as §2

[23] = test system: BT-549; assay: as above
Protocol: as §2

[24] = test system: MFM-223; assay: as above
Protocol: as §2

[25] = test system: HCC1599; assay: as above
Protocol: as §2

[26] = test system: CAL-51; assay: as above
Protocol: as §2

[27] = test system: MDA-MB-453; assay: as above
Protocol: as §2

[28] = test system: CAL-120; assay: as above
Protocol: as §2

Row | Compound | normalised viability ([1]; 100 nM) | normalised viability ([2]; 10 nM) | drug sensitivity score [11] | drug sensitivity score [12] | drug sensitivity score [13] | drug sensitivity score [14] | drug sensitivity score [15] | drug sensitivity score [16] | drug sensitivity score [17] | drug sensitivity score [18] | drug sensitivity score [19] | drug sensitivity score [20] | drug sensitivity score [21] | drug sensitivity score [22] | drug sensitivity score [23] | drug sensitivity score [24] | drug sensitivity score [25] | drug sensitivity score [26] | drug sensitivity score [27] | drug sensitivity score [28] | further results
1 | c1ccc(C2CN3CCSC3=N2)cc1 (stereo not drawn) [Tetramisole] | 108% | 114% | 0 | 0 | 0 | 0 | 0 | 0 | 0 | 0 | 0 | 0 | 0 | 0 | 0 | 0 | 0 | 0 | 0 | 0 | normalised viability ([3]; 100 nM): 108%; normalised viability ([4]; 100 nM): 116%; normalised viability ([5]; 100 nM): 104%; normalised viability ([6]; 100 nM): 98.8%; normalised viability ([7]; 10 nM): 87.6%; normalised viability ([8]; 100 nM): 83%; normalised viability ([9]; 100 nM): 92.3%; normalised viability ([10]; 100 nM): 107%
2 | COc1c(C)cnc(Cn2cnc3c(Cl)nc(N)nc32)c1C [BIIB021] | 89.8% | 82.3% | 11.9 | 12.9 | 19.3 | 19.4 | 15.8 | 12.8 | 17 | 18.8 | 13.6 | 26.8 | 14.4 | 22 | 18.8 | 18.6 | 8.11 | 15.5 | 24.8 | 23.5 | normalised viability ([3]; 100 nM): 59.6%; normalised viability ([4]; 100 nM): 58.8%; normalised viability ([5]; 100 nM): 23.9%; normalised viability ([6]; 100 nM): 68.9%; normalised viability ([7]; 10 nM): 82.6%; normalised viability ([8]; 100 nM): 52.6%; normalised viability ([9]; 100 nM): 53.9%; normalised viability ([10]; 100 nM): 101%
3 | COc1ncc(-c2ccc3nccc(-c4ccnnc4)c3c2)cc1NS(=O)(=O)c1ccc(F)cc1F |  |  | 14.2 | 15.1 | 17.3 | 12.3 | 13.3 | 21.1 | 14.6 | 19.9 | 16.8 | 25 | 14.2 | 10.8 | 13.6 | 20.6 | 17 | 21.4 | 25.7 | 16.3 | normalised viability ([1]; 10 nM): 83%; normalised viability ([2]; 1 nM): 111%; normalised viability ([3]; 10 nM): 78.5%; normalised viability ([4]; 10 nM): 68.2%; normalised viability ([5]; 10 nM): 32.7%; normalised viability ([6]; 10 nM): 86.2%; normalised viability ([7]; 1 nM): 88.1%; normalised viability ([8]; 10 nM): 95.9%; normalised viability ([9]; 10 nM): 53.1%; normalised viability ([10]; 10 nM): 57.1%
4 | COc1cc(Nc2ncc(F)c(Nc3ccc4c(n3)NC(=O)C(C)(C)O4)n2)cc(OC)c1OC [R406] | 96.1% | 91.2% | 0 | 0 | 0 | 0 | 5.44 | 0 | 0 | 0 | 0 | 0 | 0 | 0 | 5.38 | 0 | 0 | 0 | 0 | 0 | normalised viability ([3]; 100 nM): 125%; normalised viability ([4]; 100 nM): 84.4%; normalised viability ([5]; 100 nM): 95.7%; normalised viability ([6]; 100 nM): 92.3%; normalised viability ([7]; 10 nM): 122%; normalised viability ([8]; 100 nM): 105%; normalised viability ([9]; 100 nM): 96.4%; normalised viability ([10]; 100 nM): 102%
5 | CS(=O)(=O)OCCCCOS(C)(=O)=O [Busulfan] |  |  | 0 | 0 | 0 | 2.62 | 0 | 0 | 0 | 0 | 0 | 0 | 0 | 0 | 0 | 0 | 0 | 0 | 0 | 0 | normalised viability ([1]; 1000 nM): 93.3%; normalised viability ([2]; 100 nM): 106%; normalised viability ([3]; 1000 nM): 94.6%; normalised viability ([4]; 1000 nM): 124%; normalised viability ([5]; 1000 nM): 97.5%; normalised viability ([6]; 1000 nM): 114%; normalised viability ([7]; 100 nM): 91.4%; normalised viability ([8]; 1000 nM): 85.1%; normalised viability ([9]; 1000 nM): 90.3%; normalised viability ([10]; 1000 nM): 101%
6 | CC(C)C[C@H](NC(=O)[C@H](Cc1ccccc1)NC(=O)c1cnccn1)B(O)O [Bortezomib] |  |  | 16.2 | 19.7 | 17.9 | 27.3 | 28.8 | 27.7 | 21.6 | 18.8 | 24.8 | 25.5 | 29.8 | 20.9 | 24.3 | 22.5 | 7.18 | 16.8 | 22.7 | 26.4 | normalised viability ([1]; 10 nM): 98.9%; normalised viability ([2]; 1 nM): 91.2%; normalised viability ([3]; 10 nM): 19.6%; normalised viability ([4]; 10 nM): 52.1%; normalised viability ([5]; 10 nM): 22.4%; normalised viability ([6]; 10 nM): 12%; normalised viability ([7]; 1 nM): 120%; normalised viability ([8]; 10 nM): 39.5%; normalised viability ([9]; 10 nM): 38.1%; normalised viability ([10]; 10 nM): 110%
